In PubChem BioAssay AID330 (DTP/NCI, 2004):
“And” between values parts separate entries of the source, which are not always exact repeats. Equal values may be shown once. Toxic doses and inconclusive results are not listed. Numbered stars: 1 amine (or outer) side, 2 acyl side, 3 side chain; on linkers, the order of the positions; unused ones are H or OH. Square brackets hold non-standard residues; d marks the D form. Peptide text beside a SMILES is read from it. X9 = C=CCC(O[*:1])C(=O)[*:2]; NMeV = CN[CH](C(=O)O)C(C)C; NMeA = CN[CH](C)C(=O)O; βAla = NCCC(=O)O

Test system: P388 leukemia ip, CD2F1 mice, survival T/C
Experiment: NCI In Vivo Anticancer Drug Screen. Data for tumor model P388 Leukemia (intraperitoneal) in CD2F1 (CDF1) mice
Settings: endpoint: median survival time, higher = longer survival
Summary of the method: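 Mice carrying the transplanted tumor received test compound or vehicle. Survival was recorded in each group, and the value is the treated-group measurement divided by that of the vehicle-treated control group.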

[1] = dose: 60.0 mg/kg/injection, schedule: Q01DX005 (ip), vehicle: saline with Tween-80
[2] = dose: 120.0 mg/kg/injection, schedule: Q01DX005 (ip), vehicle: saline with Tween-80
[3] = dose: 50.0 mg/kg/injection, schedule: Q01DX005 (ip), vehicle: saline
[4] = dose: 100.0 mg/kg/injection, schedule: Q01DX005 (ip), vehicle: saline
[5] = dose: 12.5 mg/kg/injection, schedule: Q01DX009 (ip), vehicle: water
[6] = dose: 25.0 mg/kg/injection, schedule: Q01DX009 (ip), vehicle: water

Q: What does the source list for `N=C(N)n1ncc2c1CCC/C2=N/N=C(N)N`?
A: T/C [1]: 99 % of control; T/C [2]: 96 % of control; T/C (dose: 240.0 mg/kg/injection, schedule: Q01DX005 (ip), vehicle: saline with Tween-80): 103 % of control

Q: `CCCSC(=S)Nc1nc2ccc(C)cc2s1` was tested. Which T/C (dose: 100.0 mg/kg/injection, schedule: Q04DX003 (ip), vehicle: saline) did it give?
A: 100 % of control

Q: And the T/C (dose: 200.0 mg/kg/injection, schedule: Q04DX003 (ip), vehicle: saline)?
A: 93 % of control

Q: What about the T/C (dose: 400.0 mg/kg/injection, schedule: Q04DX003 (ip), vehicle: saline) of the same compound?
A: 101 % of control

Q: For `Oc1cc(O)c(Br)c(O)c1`, which T/C (dose: 7.5 mg/kg/injection, schedule: Q01DX005 (ip), vehicle: saline) is on record?
A: 108 % of control

Q: What about the T/C (dose: 15.0 mg/kg/injection, schedule: Q01DX005 (ip), vehicle: saline) of the same compound?
A: 111 % of control

Q: And the T/C (dose: 30.0 mg/kg/injection, schedule: Q01DX005 (ip), vehicle: saline)?
A: 105 % of control

Q: Which T/C (dose: 50.0 mg/kg/injection, schedule: Q01DX005 (ip), vehicle: saline with Tween-80) does the source give for `COC(=O)c1ccc(C)c(N(CCO)CCO)c1` here?
A: 104 % of control

Q: What about the T/C (dose: 100.0 mg/kg/injection, schedule: Q01DX005 (ip), vehicle: saline with Tween-80) of the same compound?
A: 104 % of control

Q: And the T/C (dose: 200.0 mg/kg/injection, schedule: Q01DX005 (ip), vehicle: saline with Tween-80)?
A: 104 % of control

Q: How did the T/C (dose: 50.0 mg/kg/injection, schedule: Q01DX009 (ip), vehicle: saline with Tween-80) turn out when `Oc1ccc(O)c([P+](c2ccccc2)(c2ccccc2)c2ccccc2)c1` was run?
A: 111 % of control

Q: And the T/C (dose: 100.0 mg/kg/injection, schedule: Q01DX009 (ip), vehicle: saline with Tween-80)?
A: 115 % of control

Q: Which results are given for `C=C(Cl)C(=NC(C)(C)C)Nc1ccccc1Cl`?
A: T/C (dose: 6.25 mg/kg/injection, schedule: Q01DX005 (ip), vehicle: saline): 100 % of control; T/C (dose: 12.5 mg/kg/injection, schedule: Q01DX005 (ip), vehicle: saline): 117 % of control; T/C (dose: 25.0 mg/kg/injection, schedule: Q01DX005 (ip), vehicle: saline): 124 % of control; T/C [3]: 114 % of control and 120 % of control; T/C [4]: 118 % of control

Q: How did the T/C [5] turn out when `CCCCCC(CN(C)C)C(=O)CC(SCC)c1ccccc1` (stereo not drawn) was run?
A: 111 % of control

Q: And the T/C [6]?
A: 100 % of control

Q: For `C=CCC1OC(=O)CCNC(=O)C(C)N(C)C(=O)C(C(C)C)N(C)C(=O)C(C(C)CC)NC(=O)C2CCCN2C1=O` (stereo not drawn) (cyclo([X9]PI[NMeV][NMeA][βAla]); configuration not given here), which T/C (dose: 1.56 mg/kg/injection, schedule: Q01DX005 (ip), vehicle: water) is on record?
A: 94 % of control

Q: What about the T/C (dose: 3.12 mg/kg/injection, schedule: Q01DX005 (ip), vehicle: water) of the same compound?
A: 95 % of control

Q: And the T/C (dose: 6.25 mg/kg/injection, schedule: Q01DX005 (ip), vehicle: water)?
A: 101 % of control

Q: And the T/C (dose: 12.5 mg/kg/injection, schedule: Q01DX005 (ip), vehicle: water)?
A: 104 % of control

Q: With `Cc1cc(NC(=S)SCc2ccc(Cl)cc2)ccc1F` as the compound, how does the T/C (dose: 50.0 mg/kg/injection, schedule: Q01DX009 (ip), vehicle: suspension in saline) read?
A: 109 % of control

Q: And the T/C (dose: 100.0 mg/kg/injection, schedule: Q01DX009 (ip), vehicle: suspension in saline)?
A: 100 % of control

Q: What about the T/C (dose: 200.0 mg/kg/injection, schedule: Q01DX009 (ip), vehicle: suspension in saline) of the same compound?
A: 94 % of control

Q: How did the T/C [1] turn out when `CCOC(=O)CNC(=O)c1cc2c(cn1)[nH]c1ccccc12` was run?
A: 93 % of control

Q: What about the T/C [2] of the same compound?
A: 86 % of control

Q: Which T/C [3] does the source give for `COC(=O)c1nc(Cl)[nH]c1CC#N` here?
A: 103 % of control

Q: What about the T/C [4] of the same compound?
A: 112 % of control

Q: What about the T/C (dose: 200.0 mg/kg/injection, schedule: Q01DX005 (ip), vehicle: saline) of the same compound?
A: 105 % of control

Q: For `OCC1OC2OC3C(CO)OC(OC4C(CO)OC(OC5C(CO)OC(OC6C(CO)OC(OC7C(CO)OC(OC1C(O)C2O)C(O)C7O)C(O)C6O)C(O)C5O)C(O)C4O)C(O)C3O` (stereo not drawn) (tested in a mixture with another compound), which T/C (dose: 3.12 mg/kg/injection, schedule: Q01DX009 (ip), vehicle: water) is on record?
A: 105 % of control

Q: What about the T/C (dose: 6.25 mg/kg/injection, schedule: Q01DX009 (ip), vehicle: water) of the same compound?
A: 108 % of control

Q: What about the T/C [5] of the same compound?
A: 105 % of control

Q: And the T/C [6]?
A: 122 % of control and 111 % of control and 115 % of control

Q: What about the T/C (dose: 50.0 mg/kg/injection, schedule: Q01DX009 (ip), vehicle: water) of the same compound?
A: 109 % of control and 111 % of control and 123 % of control

Q: What about the T/C (dose: 200.0 mg/kg/injection, schedule: Q01DX009 (ip), vehicle: water) of the same compound?
A: 164 % of control

Q: What about the T/C (dose: 400.0 mg/kg/injection, schedule: Q01DX009 (ip), vehicle: water) of the same compound?
A: 250 % of control

Q: How did the T/C (dose: 100.0 mg/kg/injection, schedule: Q04DX003 (ip), vehicle: Klucel (hydroxypropylcellulose) (HPC)) turn out when `CCn1c2ccccc2c2cc(N=Nc3ccc(N)c4ccccc34)ccc21` was run?
A: 97 % of control

Q: What about the T/C (dose: 200.0 mg/kg/injection, schedule: Q04DX003 (ip), vehicle: Klucel (hydroxypropylcellulose) (HPC)) of the same compound?
A: 101 % of control

Q: And the T/C (dose: 400.0 mg/kg/injection, schedule: Q04DX003 (ip), vehicle: Klucel (hydroxypropylcellulose) (HPC))?
A: 94 % of control
